Measured values taken from patent US10517954B2, “Pegylated carfilzomib compounds” (AMGEN INC., priority 2016, dated 2019).

Legend:
[1] = tested on: cellular proteasome chymotrypsin-like (CT-L) in MOLT-4 human acute lymphoblastic leukemia T lymphoblasts; assay: Proteosome inhibition in cells (AMC-LLVY fluorescent assay, FIGS. 9-14); format: cell-based; conditions: MOLT-4 cells, 1 hour incubation; read-out: cellular proteasome chymotrypsin-like (CT-L) IC50 inhibitory potency
Procedure: MOLT-4 human acute lymphoblastic leukemia T lymphoblasts were grown for at least 6 passages in growth media (RPMI-1640 basal media supplemented with 10% FBS and 1×L-glutamine). […] Serial dilutions were performed in DMSO to produce concentrations covering 7 logs, and then each serial dilution was further diluted 40× in growth media. Dilutions were then added in equal volume to wells containing cells, further diluting compound concentrations by two-fold. Cells were incubated at 37° C. (5% CO2) for 1 hour, then spun at 1500 rpm for 5 mins at RT. Media was removed and the cells were washed with PBS 3 times. After the last wash, supernatant was removed and the cell pellets were frozen on dry ice. Cell pellets were thawed and then lysed by resuspending in 50 uL lysis buffer on ice (20 mM Tris-HCl, 5 mM EDTA, pH 8). The preparation was centrifuged at 1500 rpm for 5 mins and then utilized directly for AMC-LLVY fluorescent assay.

[2] = PEG-carfilzomib mouse pK (FIG. 2); design: species or system mice (Balb/c); conditions: in vivo, iv
Procedure: Mean plasma concentration (μM) following intravenous administration of PEG-carfilzomib conjugate to female Balb/c mice (n=3). Dosage indicated is mg/kg of PEG-carfilzomib conjugate. […] Blood samples were collected at the indicated time points and plasma carfilzomib concentrations were measured in duplicate by LC/MS-MS. […] This standard carfilzomib represents the currently approved formulation for carfilzomib for treatment of multiple myeloma.

[3] = tested on: HT-29 Human Colorectal Adenocarcinoma Xenograph Model; assay: Efficacy study in HT-29 xenograph model (FIG. 5, FIG. 6, Table 6); format: in vivo, SCID Beige Mice; conditions: for % Change compared to Vehicle: Day 40; for Day 0 Tumor Vol: baseline; for # of animals at day 40: n = 10 at start
Text: (§1) Female Beige Severe Combined Immune Deficiency (SCID) mice (60 plus spares) were purchased from Harlan Laboratories (Livermore, Calif.) as 6- to 7-week-old mice. Following arrival, animals were weighed using an electronic balance (Ohaus SCOUT® PRO, Parsippany, N.J.), given a clinical examination to ensure that the animals were in good condition, and housed 5 per cage (prior to dosing). The animals were maintained in a HEPA-filtered environment in a Micro-VENT full-ventilation rodent housing system (Allentown Caging Equipment Co., Allentown, N.J.) providing at least 10 room air changes per hour Animal room controls were set to maintain temperature and relative humidity at 20° C.±1° C. and 50%±20%, respectively. Housing rooms were on a 12:12 light/dark cycle. Cages were autoclaved, and animals were bedded on SaniChip irradiated bedding 7990.BG (Harlan Teklad; Hayward, Calif.). Water was autoclaved and supplied ad libitum to each cage via water bottles. Irradiated 2018 Teklad Global 16% Protein Rodent Diet ((Harlan Teklad) supplied ad libitum to each cage.
Example 13 was prepared as generally described above. The carfilzomib comparator compound was prepared as CFZ-captisol (at 1 mg/mL). A powder sample of example 13 was diluted to 30 mg/ml (Group 3) or 50 mg/ml (Group 3 beginning fourth dose) or 40 mg/ml (Group 4) in 10% ETOH/saline. Vehicle and CFZ-captisol were stored at 4° C. throughout the study. During the study, example 13 was inspected regularly for potential changes in the quality of the suspension; none were observed
NCI-HT29 (HT-29; ATCC® HTB-38™), a human colorectal adenocarcinoma cancer cell (CA) line, was purchased from ATCC (Manassas, Va.). Following receipt at the MGI, cells were grown in-house for 7 passages in RPMI 1640 and 10% fetal bovine serum, then used to generate frozen stocks. The cells were recovered from the frozen stocks and cultured as above. Following growth, the cells were spun down and resuspended at a concentration of 5E07 cells/mL in serum-free medium without additives, then combined 1:1 with Matrigel™ (Trevigen, Gaithersburg, Md.). At the time of implant, cells corresponded to MGI Passage 7 (MGP7).
At approximately 3 weeks prior to the projected staging day, mice were implanted by subcutaneous (SC) injection into the lower left abdominal flank with 200 μL (5.0E06 cells) per mouse of the freshly prepared HT29:Matrigel mixture. All procedures were carried out in HEPA-filtered laminar-flow hoods.
When the tumors reached a mean volume of approximately 200 mm^3 per mouse, forty animals with established tumors and moderate body weights were randomized into 4 treatment groups (n=10 mice per group). Starting on Day 0, animals were administered by once-weekly (qw) injection with vehicle (Group 1) or twice-weekly D1D2 injection (i.e., two adjacent days each week) with CFZ-captisol at 5 mpk (Group 2) or OP-59381 at 150 mg/kg (Groups 3). Starting with the fourth dose (i.e., after three week), dosing of Group 3 animals was increased to 250 mg/kg. Group 4 was dosed once-weekly (qw) injection with or OP-59381 (Example 13) at 200 mg/kg. All of these doses were administered as intravenous (IV) injections at dose volumes of 5 mL/kg. After the IV dosing for the seventh week (i.e., after Day 42 for Groups 1-4), the tumor treatment efficacy appeared to slow or cease altogether.

[4] = tested on: HT-29 Colorectal Adenocarcinoma Xenograph Model; assay: Second efficacy study in HT-29 xenograph model (FIG. 7); format: in vivo, SCID Beige Mice
Text: as §1
Example 13 was formulated as described herein to the desired concentration. Carfilzomib was provided as CFZ-captisol (at 1 mg/mL). a powder sample of Example 13 was diluted to 30 mg/ml (Group 3) or 50 mg/ml (Group 4) in 10% ETOH/saline. Vehicle and CFZ-captisol were stored at 4° C. throughout the study. […]

[5] = mouse, in vivo, iv, 5 mg/kg
Procedure: The PEG carfilzomib compounds were administered to mice (Balb/c, male, n=9 per dose group) as an intravenous (i.v.) bolus at 5 mg/kg (equivalent to carfilzomib, dose volume 1 mL/kg). Blood samples from each mouse were collected at the indicated time points (0.5, 1, 2, 4, 6, 12, 16 and 24 hours post-dose) and 25 μL of the plasma samples were extracted by protein precipitation with 125 μL of acetonitrile containing D10-CFZ as an internal standard and then centrifuged. Carfilzomib concentrations were measured in the supernatant by LC-MS/MS using multiple reaction monitoring in the positive electrospray ionization mode. The lower limit of quantitation of the assay was 0.500 ng/mL.

[6] = in humans; cited from earlier work
[7] = Group 3, 150 mpk to 250 mpk (QW) IV

Molecule “4-(4-Acetoxy-3-((1-PEG2K-1H-1,2,3-triazol-4-yl)methoxy)benzyl)-4-((4S,7S,10S,13S)-10-benzyl-7-isobutyl-15-methyl-13-((R)-2-methyloxirane-2-carbonyl)-2,5,8,11-tetraoxo-4-phenethyl-3,6,9,12-tetraazahexadecyl)morpholin-4-ium mesylate [Example 36]” has an IC50 [1] of about 21.8 nM.
Work on “4-(4-Acetoxy-3-((1-PEG3K-1H-1,2,3-triazol-4-yl)methoxy)benzyl)-4-((4S,7S,10S,13S)-10-benzyl-7-isobutyl-15-methyl-13-((R)-2-methyloxirane-2-carbonyl)-2,5,8,11-tetraoxo-4-phenethyl-3,6,9,12-tetraazahexadecyl)morpholin-4-ium mesylate [Example 35]” yielded an IC50 [1] of about 9 nM.
In the case of “4-(4-acetoxy-3-((1-(5-((2-PEG2K-ethyl)amino)-5-oxopentyl)-1H-1,2,3-triazol-4-yl)methoxy)benzyl)-4-((4S,7S,10S,13S)-10-benzyl-7-isobutyl-15-methyl-13-((R)-2-methyloxirane-2-carbonyl)-2,5,8,11-tetraoxo-4-phenethyl-3,6,9,12-tetraazahexadecyl)morpholin-4-ium mesylate [Example 38]”, the IC50 [1] is reported as about 21.8 nM.
With “4-(4-acetoxy-3-((1-(5-((2-PEG3K-ethyl)amino)-5-oxopentyl)-1H-1,2,3-triazol-4-yl)methoxy)benzyl)-4-((4S,7S,10S,13S)-10-benzyl-7-isobutyl-15-methyl-13-((R)-2-methyloxirane-2-carbonyl)-2,5,8,11-tetraoxo-4-phenethyl-3,6,9,12-tetraazahexadecyl)morpholin-4-ium mesylate [Example 37]” the IC50 [1] was about 22.8 nM.
In the case of “4-((4S,7S,10S,13S)-10-Benzyl-7-isobutyl-15-methyl-13-((R)-2-methyloxirane-2-carbonyl)-2,5,8,11-tetraoxo-4-phenethyl-3,6,9,12-tetraazahexadecyl)-4-(3-((1-(PEG20K-4-Arm)-1H-1,2,3-triazol-4-yl)methoxy)-4-(pivaloyloxy)benzyl)morpholin-4-ium formate [Example 13]”, the “plasma concentration relative to control” value [2] is reported as “multiple log-fold over that of the control”, the “tumor growth vs. vehicle control by Day 19” value ([3]; 200 mpk Example 13, 5 mpk CFZ-captisol) is reported as “significantly attenuated” and the “Day 40 Tumor Vol” value [3, 7] is reported as 998.5 mm^3. The “% Change compared to Vehicle” value [3, 7] was −59.6%, the “Day 0 Tumor Vol” value [3, 7] was 95.5 mm^3 and the “# of animals at day 40” value [3, 7] was 9. For the same molecule, the “Day 40 Tumor Vol” value ([3]; Group 4, 200 mpk (QW) IV) was 1443.0 mm^3, the “% Change compared to Vehicle” value ([3]; Group 4, 200 mpk (QW) IV) was −41.6% and the “Day 0 Tumor Vol” value ([3]; Group 4, 200 mpk (QW) IV) was 95.9 mm^3. For the same molecule, the “# of animals at day 40” value ([3]; Group 4, 200 mpk (QW) IV) was 7, the “Day-41 tumor sizes, % of control” value ([4]; Group 3, example 13 at 150 mg/kg IV (Table 7: QD × 2 (D1D2) × 6 weeks)) was 79.6% and the “Day-41 tumor sizes, % of control” value ([4]; Group 4, example 13 at 250 mg/kg IV, QW × 6 weeks) was 61.8%. For the same molecule, the AUC0-24 [5] was 3510 ng·h/mL, the T1/2 [5] was 3.68 h and the “carfilzomib plasma concentration-time profile (FIG. 4)” value [5] was “significantly higher plasma concentrations for that lengthy duration of time”. For the same molecule, the “time carfilzomib is present in / released into the plasma post administration” value [5] was 25 h.
For `CC(C)C[C@H](NC(=O)[C@H](CCc1ccccc1)NC(=O)CN1CCOCC1)C(=O)N[C@@H](Cc1ccccc1)C(=O)N[C@@H](CC(C)C)C(=O)[C@@]1(C)CO1` [carfilzomib, Carfilzomib], the IC50 [1] is listed as about 9.2 nM and the half-life in-vivo [6] is listed as at most 1 h.
